Paper PMC5321434, “Dihydrobenz[e][1,4]oxazepin-2(3H)-ones, a new anthelmintic chemotype immobilising whipworm and reducing infectivity in vivo” (PLoS Neglected Tropical Diseases, 2017)

Test system: adult T. muris
Experiment: Ex vivo adult T. muris automated motility assay (primary/secondary screen at 100 μM and dose-response)
Parameters: species or system Trichuris muris
Settings: 100 μM; for COMBINED_SCREEN_ACTIVITY: combined primary and secondary screen minus log fold change in movement, adult T. muris; for PRIMARY_SCREEN_MINUS_LOG_FOLD_CHANGE_MOVEMENT: primary screen; for PRIMARY_SCREEN_MINUS_LOG_FOLD_CHANGE_MOVEMENT / SECONDARY_SCREEN_MINUS_LOG_FOLD_CHANGE_MOVEMENT: adult T. muris motility; for SECONDARY_SCREEN_MINUS_LOG_FOLD_CHANGE_MOVEMENT: secondary screen
Description: Severe combined immune deficiency (SCID) mice were bred in the Biological Services Facility at the University of Manchester. Both male and female SCID mice were infected with a high dose of 200 infective embryonated T. muris eggs via oral gavage. At day 35 post-infection, groups of 5 mice were killed and their […] colons removed. Guts were opened longitudinally, washed with pre-warmed Roswell Park Memorial Institute (RPMI) 1640 media supplemented with penicillin (500U/ml) and streptomycin (500μg/ml) and adult T. muris worms gently removed using fine forceps. Worms removed from SCID mice were maintained in RPMI-1640 media supplemented with penicillin (500U/ml) and streptomycin (500μg/ml) at approximately 37°C and studied on the same day. Using fine forceps, individual live worms were placed into 96 well plates containing 75μl of RPMI-1640 medium supplemented with penicillin (500U/ml) and streptomycin (500μg/ml) plus 1% final concentration of DMSO or compound dissolved in DMSO. In the primary screen the test compound concentration was 100μM. Plates were then incubated at 37°C, 5% CO2, and motility was analysed after 24 hours. Worm movement was quantified using an automated motility assay. This system gives an estimate of worm movement in each well by thresholding and quantifying pixel intensity variance over time. An earlier version of this system has been previously described. One adult T. muris worm was used per well, with one well per compound in each replicate of the primary screen. The primary screen was repeated each week for a period of four weeks giving four independent biological replicates from separate parasite batches for each compound. Dose-response curves were calculated with the four factor log-logistic model using the R package drc. The primary screen was carried out at 100μM final concentration. Assay plates were assigned unique IDs and statistical analysis was performed without knowledge of compound identities using R scripts. Once hit wells were identified, well/plate positions were mapped to compound identities using DataWarrior [28]. […] Compounds identified as having encouraging activity from the DMSO solution samples were then resynthesized for confirmatory testing.

Structure (SMILES)	COMBINED_SCREEN_ACTIVITY	PRIMARY_SCREEN_MINUS_LOG_FOLD_CHANGE_MOVEMENT	SECONDARY_SCREEN_MINUS_LOG_FOLD_CHANGE_MOVEMENT
O=C1COCc2ccc(-c3cccnc3)cc2N1Cc1ccccc1Cl [Compound 107]	2.19	2.19	–
COCCN1C(=O)COCc2ccc(-c3cccc(C(F)(F)F)c3)cc21 [Compound 108]	-0.2552	-0.2552	–
O=C1COCc2cc(-c3cccnc3)ccc2N1Cc1cc(F)cc(F)c1 [Compound 109]	7.462	7.462	–
O=C1COCc2ccc(-c3cccnc3)cc2N1Cc1cc(F)cc(F)c1 [Compound 110]	-0.9208	-0.9208	–
Cc1ccccc1-c1ccc2c(c1)COCC(=O)N2CCN1CCOCC1 [Compound 111]	-0.2494	-0.2494	–
Cc1ccccc1-c1ccc2c(c1)N(CCN1CCOCC1)C(=O)COC2 [Compound 112]	-1.303	-1.303	–
Cn1cc(-c2ccc3c(c2)COCC(=O)N3Cc2ccccc2Cl)cn1 [Compound 113]	0.5472	0.5472	–
Cn1cc(-c2ccc3c(c2)N(Cc2ccccc2Cl)C(=O)COC3)cn1 [Compound 114]	1.278	1.278	–
Cc1ccc(CN2C(=O)COCc3cc(-c4cccc(C#N)c4)ccc32)cc1 [Compound 115]	-2.656	-2.656	–
O=C1COCc2ccc(-c3cccc(F)c3)cc2N1CCN1CCOCC1 [Compound 116]	0.5451	0.5451	–
O=C(O)c1cccc(-c2ccc3c(c2)N(Cc2ccccc2)C(=O)COC3)c1 [Compound 117]	-1.457	-1.457	–
COCc1cccc(-c2ccc3c(c2)N(Cc2ccccc2)C(=O)COC3)c1 [Compound 118]	10.5493	10.5493	–
COc1ccccc1-c1ccc2c(c1)COCC(=O)N2CCc1ccccc1 [Compound 119]	-0.8266	-0.8266	–
COc1ccccc1-c1ccc2c(c1)COCC(=O)N2Cc1ccc(C)cc1 [Compound 120]	-1.664	-1.664	–
COc1ccccc1-c1ccc2c(c1)N(CCc1ccccc1)C(=O)COC2 [Compound 121]	1.0336	1.0336	–
Cc1ccccc1CN1C(=O)COCc2ccc(-c3cccc(CO)c3)cc21 [Compound 122]	-0.2289	-1.039	0.5816
Cc1ccc(CN2C(=O)COCc3cc(-c4cccc(CO)c4)ccc32)cc1 [Compound 123]	-0.1619	-0.1619	–
O=C1COCc2cc(-c3ccncc3)ccc2N1Cc1ccc2c(c1)OCO2 [Compound 124]	0.4678	0.4678	–
O=C1COCc2cc(-c3cccnc3)ccc2N1Cc1ccc2c(c1)OCO2 [Compound 125]	-0.9605	-0.9605	–
COc1cccc(CN2C(=O)COCc3cc(-c4cccc(O)c4)ccc32)c1 [Compound 126]	1.18	1.18	–
Cn1cc(-c2ccc3c(c2)COCC(=O)N3Cc2ccc3c(c2)OCO3)cn1 [Compound 127]	0.2993	-0.5635	1.162
COc1cc(F)ccc1-c1ccc2c(c1)COCC(=O)N2Cc1ccccc1 [Compound 128]	3.2501	3.2501	–
COc1ccc(F)cc1-c1ccc2c(c1)N(Cc1ccccc1)C(=O)COC2 [Compound 129]	3.716	3.716	–
COc1cccc(CN2C(=O)COCc3cc(-c4cccc(F)c4)ccc32)c1 [Compound 130]	0.2069	0.2069	–
COc1cccc(CN2C(=O)COCc3ccc(-c4cccc(F)c4)cc32)c1 [Compound 131]	-0.1165	-0.1165	–

Structure (SMILES)	COMBINED_SCREEN_ACTIVITY	PRIMARY_SCREEN_MINUS_LOG_FOLD_CHANGE_MOVEMENT	SECONDARY_SCREEN_MINUS_LOG_FOLD_CHANGE_MOVEMENT
N#Cc1cccc(-c2ccc3c(c2)N(CCN2CCOCC2)C(=O)COC3)c1 [Compound 132]	-2.183	-2.183	–
O=C1COCc2ccc(-c3cccc(O)c3)cc2N1Cc1ccccc1Cl [Compound 133]	-0.006244	-0.006244	–
Cc1ccc(-c2ccc3c(c2)N(CCN2CCOCC2)C(=O)COC3)cc1C [Compound 134]	-2.044	-2.044	–
COc1ccccc1-c1ccc2c(c1)COCC(=O)N2CCN1CCOCC1 [Compound 135]	-1.035	-1.035	–
COc1ccccc1-c1ccc2c(c1)N(CCN1CCOCC1)C(=O)COC2 [Compound 136]	-0.8162	-0.8162	–
CC(=O)Nc1cccc(-c2ccc3c(c2)N(Cc2ccccc2)C(=O)COC3)c1 [Compound 137]	5.935	5.935	–
O=C1COCc2cc(-c3cc(F)cc(F)c3)ccc2N1CCN1CCOCC1 [Compound 138]	-0.5965	-0.5965	–
O=C1COCc2ccc(-c3cc(F)cc(F)c3)cc2N1CCN1CCOCC1 [Compound 139]	-1.36	-1.36	–
O=C1COCc2cc(-c3cccc(O)c3)ccc2N1Cc1ccc2c(c1)OCO2 [Compound 140]	-0.481	-0.481	–
COc1cccc(CN2C(=O)COCc3cc(-c4ccccc4OC)ccc32)c1 [Compound 141]	-1.328	-1.328	–
COc1cccc(CN2C(=O)COCc3cc(-c4cccc(CO)c4)ccc32)c1 [Compound 142]	-0.6408	-0.6408	–
COc1cccc(CN2C(=O)COCc3cc(-c4ccc(OC)nc4)ccc32)c1 [Compound 143]	-1.1304	-1.1304	–
COc1cc(F)ccc1-c1ccc2c(c1)COCC(=O)N2CCc1ccccc1 [Compound 144]	-1.769	-1.769	–
COc1ccc(F)cc1-c1ccc2c(c1)COCC(=O)N2CCc1ccccc1 [Compound 145]	-1.739	-1.739	–
COc1cc(F)ccc1-c1ccc2c(c1)N(CCc1ccccc1)C(=O)COC2 [Compound 146]	-0.8154	-0.8154	–
COc1ccc(F)cc1-c1ccc2c(c1)N(CCc1ccccc1)C(=O)COC2 [Compound 147]	0.4002	0.4002	–
CC(=O)Nc1cccc(-c2ccc3c(c2)N(CC2CCCCC2)C(=O)COC3)c1 [Compound 149]	6.083	10.5493	1.617
COc1ccccc1-c1ccc2c(c1)COCC(=O)N2Cc1ccccc1Cl [Compound 150]	-1.328	-1.328	–
COc1ccccc1-c1ccc2c(c1)N(Cc1ccccc1Cl)C(=O)COC2 [Compound 151]	-1.249	-1.249	–
CC(C)c1cccc(-c2ccc3c(c2)N(CCN2CCOCC2)C(=O)COC3)c1 [Compound 152]	5.995	5.995	–
COc1ccc(-c2ccc3c(c2)N(Cc2ccccc2Cl)C(=O)COC3)cn1 [Compound 153]	0.2455	0.2455	–
O=C1COCc2cc(-c3cccc(CO)c3)ccc2N1Cc1cc(F)cc(F)c1 [Compound 154]	-1.197	-1.197	–
COc1ccccc1-c1ccc2c(c1)COCC(=O)N2Cc1cc(F)cc(F)c1 [Compound 155]	-0.9332	-0.9332	–
COc1ccc(-c2ccc3c(c2)N(Cc2cc(F)cc(F)c2)C(=O)COC3)cn1 [Compound 156]	-1.039	-1.039	–
COc1ccc(-c2ccc3c(c2)N(CCN2CCOCC2)C(=O)COC3)c(C)c1 [Compound 157]	-1.37	-1.37	–
